According to patent publication US12297482B2, “Rapid cell culture test device designed such that fluid films with uniform thickness are formed” (priority 2020, dated 2025):

Tests used:
P. aeruginosa ATCC 27853 = experiment: Antibiotic susceptibility testing using the cell culture test device (DRAST), time-lapse colony observation; settings: reference strain, observed until 6 h
Enterobacter cloacae [1] = experiment: Susceptibility testing of blood-sample strain by broth microdilution (BMD); assay type: cell-based; design: key: susceptible (S); intermediate resistance (I); resistance (R); settings: BMD testing method, strain from blood sample
Procedure: The tests were conducted on various drugs that are currently used in testing organizations. […] Accordingly, these test results are all classified as minor errors of the first step judgement.

Enterobacter cloacae [2] = experiment: Susceptibility testing of blood-sample strain using the cell culture test device (DRAST); assay type: cell-based; design: key: susceptible (S); intermediate resistance (I); resistance (R); settings: strain from blood sample
Source text: (§1) The liquid medium usually […].

Enterococcus faecium [3] = experiment: Susceptibility testing of blood-sample strain by broth microdilution (BMD); assay type: cell-based; design: key: susceptible (S); intermediate resistance (I); resistance (R); settings: BMD testing method, strain from blood sample
Procedure: The tests were conducted on various drugs that are currently used in testing organizations. […] Staphylococcus aureus, Staphylococcus epidermidis, Enterococcus faecalis, and Enterococcus faecium were detected in four blood samples. The test results on S. aureus and S. epidermidis in the BMD testing method were in good agreement with those in the testing method using the cell culture test device (DRAST) of the present disclosure.
Accordingly, these test results are all classified as minor errors of the first step judgement. […] The concentrations shown in FIG. 16 are expressed in μg/mL.

Enterococcus faecium [4] = experiment: Susceptibility testing of blood-sample strain using the cell culture test device (DRAST); assay type: cell-based; design: key: susceptible (S); intermediate resistance (I); resistance (R); settings: strain from blood sample
Source text: as §1
For example, the biological agent may be a culture of blood collected from a human infected with bacteria, i.e. a culture of blood positive for bacterial infection. In this case, a liquid medium stimulating the division of only the bacterial cells can be used to distinguish the bacterial cells from the blood cells based on their different sizes. The biological agent positive for bacterial infection may be collected and diluted with the gelling agent-containing liquid medium. Thus, there is no need to separate the bacteria from the blood sample, shortening the test time.

E. faecalis ATCC 29212 = experiment: Antibiotic susceptibility testing using the cell culture test device (DRAST), time-lapse colony observation; settings: reference strain, observed until 6 h
S. aureus ATCC 29213 = experiment: as above; settings: reference strain, observed until 6 h

Molecule: C[C@H]1[C@H](NC(=O)/C(=N\OC(C)(C)C(=O)O)c2csc(N)n2)C(=O)N1S(=O)(=O)O [aztreonam]
- MIC of the antibiotic against P. aeruginosa ATCC 27853 (P. aeruginosa ATCC 27853): 8.0 µg/mL

Molecule: C[C@@H](O)[C@H]1C(=O)N2C(C(=O)O)=C(S[C@@H]3CN[C@H](C(=O)Nc4cccc(C(=O)O)c4)C3)[C@H](C)[C@H]12 [ertapenem]
- susceptibility category (S/I/R) of E. cloacae (Enterobacter cloacae [1]): R
- susceptibility category (S/I/R) of E. cloacae (Enterobacter cloacae [2]): I

Molecule: CC(=O)NC[C@H]1CN(c2ccc(N3CCOCC3)c(F)c2)C(=O)O1 [linezolid]
- susceptibility category (S/I/R) of E. faecium (Enterococcus faecium [3]): R
- susceptibility category (S/I/R) of E. faecium (Enterococcus faecium [4]): I

Molecule: gentamicin
- MIC of the antibiotic against E. faecalis ATCC 29212 (E. faecalis ATCC 29212): 8.0 µg/mL

Molecule: penicillin
- MIC of the antibiotic against S. aureus ATCC 29213 (S. aureus ATCC 29213): 1.0 µg/mL
